From ChEMBL document CHEMBL1135293, “Amino acid derived sulfonamide hydroxamates as inhibitors of procollagen C-proteinase. Part 2: Solid-phase optimization of side chains” (Bioorg Med Chem Lett, 2002)

target: T1, Bone morphogenetic protein 1 (Homo sapiens, UniProt P13497); assay: Inhibitory activity against procollagen C-proteinase (PCP).
T1 sequence (P13497 whole entry): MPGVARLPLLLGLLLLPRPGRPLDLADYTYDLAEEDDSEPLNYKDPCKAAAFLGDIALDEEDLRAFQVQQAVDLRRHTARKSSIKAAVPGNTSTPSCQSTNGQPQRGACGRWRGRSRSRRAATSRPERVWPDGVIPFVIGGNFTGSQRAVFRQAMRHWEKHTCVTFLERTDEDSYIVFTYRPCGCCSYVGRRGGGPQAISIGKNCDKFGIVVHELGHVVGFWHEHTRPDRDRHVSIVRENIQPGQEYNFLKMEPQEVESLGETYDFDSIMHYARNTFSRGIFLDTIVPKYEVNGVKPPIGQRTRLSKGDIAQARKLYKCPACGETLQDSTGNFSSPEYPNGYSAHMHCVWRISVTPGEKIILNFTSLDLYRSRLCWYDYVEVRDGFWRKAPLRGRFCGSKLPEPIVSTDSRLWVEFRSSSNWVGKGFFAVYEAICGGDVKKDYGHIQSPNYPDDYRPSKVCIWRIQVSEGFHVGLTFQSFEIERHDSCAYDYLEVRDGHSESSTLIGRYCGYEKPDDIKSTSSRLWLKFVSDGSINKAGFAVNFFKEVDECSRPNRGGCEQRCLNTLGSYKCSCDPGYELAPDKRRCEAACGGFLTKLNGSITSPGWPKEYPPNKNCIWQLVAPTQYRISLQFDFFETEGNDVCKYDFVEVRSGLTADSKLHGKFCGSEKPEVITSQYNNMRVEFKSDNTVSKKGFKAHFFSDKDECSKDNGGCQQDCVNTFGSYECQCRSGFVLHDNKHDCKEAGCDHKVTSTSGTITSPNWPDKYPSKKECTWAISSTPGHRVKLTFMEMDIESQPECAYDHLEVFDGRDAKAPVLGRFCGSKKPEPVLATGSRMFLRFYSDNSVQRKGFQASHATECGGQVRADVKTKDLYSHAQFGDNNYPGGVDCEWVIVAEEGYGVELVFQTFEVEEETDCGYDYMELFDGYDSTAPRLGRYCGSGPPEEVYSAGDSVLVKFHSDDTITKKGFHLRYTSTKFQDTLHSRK

Going from `COc1ccc(S(=O)(=O)N(Cc2sc3scc(C)c3c2C)[C@H](C)C(=O)O)cc1` to `COc1ccc(S(=O)(=O)N(Cc2ccc(C(C)C)cc2)[C@H](C)C(=O)O)cc1`, the IC50 rises from 0.05 µM to 0.35 µM (7-fold).

`COc1ccc(S(=O)(=O)N(Cc2cccc(Br)c2)[C@H](Cc2cccs2)C(=O)NO)cc1` and `COc1ccc(S(=O)(=O)N(Cc2cc(F)c(F)cc2F)[C@H](Cc2cccs2)C(=O)NO)cc1` are within 1.5-fold of each other in IC50: 0.26 µM for the first, 0.18 µM for the second.
